Experimental data as given in ChEMBL document CHEMBL4359884, “Design, synthesis and biological evaluation of novel pleuromutilin derivatives possessing acetamine phenyl linker” (Eur J Med Chem, 2019).
≈ marks a conversion by molar mass, not a printed value.

Key:
Staphylococcus aureus [1] = assay: Antibacterial activity against Staphylococcus aureus ATCC 29213 assessed as bacterial growth inhibition incubated for 24 hrs by broth dilution method; format: functional; conditions: ATCC 29213, 24 h
Staphylococcus aureus [2] = assay: Antibacterial activity against methicillin-resistant Staphylococcus aureus ATCC 43300 assessed as bacterial growth inhibition incubated for 24 hrs by broth dilution method; format: functional; conditions: ATCC 43300, 24 h
Staphylococcus aureus [3] = assay: Antibacterial activity against Staphylococcus aureus AD3 assessed as bacterial growth inhibition incubated for 24 hrs by broth dilution method; format: functional; conditions: AD3, 24 h
Escherichia coli [4] = assay: Antibacterial activity against Escherichia coli ATCC 25922 assessed as bacterial growth inhibition incubated for 24 hrs by broth dilution method; format: functional; conditions: ATCC 25922, 24 h
Escherichia coli [5] = assay: Antibacterial activity against Escherichia coli 9-1 assessed as bacterial growth inhibition incubated for 24 hrs by broth dilution method; format: functional; conditions: 9-1, 24 h
Staphylococcus aureus [6] = assay: (§1) Bactericidal activity against methicillin-resistant Staphylococcus aureus ATCC 43300 assessed as reduction in colony forming unit at 4 times MIC incubated for 3 hrs followed by compound dilution with saline and then incubated for 20 hrs on MH agar plate by time-kill kinetics assay; format: functional
Staphylococcus aureus [7] = assay: Bactericidal activity against methicillin-resistant Staphylococcus aureus ATCC 43300 assessed as reduction in bacterial growth at 4 times MIC incubated for 24 hrs followed by compound dilution with saline and then incubated for 20 hrs on MH agar plate by time-kill kinetics assay relative to control; format: functional; parameters: scale not given: the % may be the effect or the level left
Staphylococcus aureus [8] = assay: Antibacterial against methicillin-resistant Staphylococcus aureus ATCC 43300 assessed as post antibiotic effect time at 2 times MIC incubated for 1 hr followed by compound washout and then incubated for 20 hrs onto MH agar plate; format: functional
Staphylococcus aureus [9] = assay: Antibacterial against methicillin-resistant Staphylococcus aureus ATCC 43300 assessed as post antibiotic effect time at 4 times MIC incubated for 1 hr followed by compound washout and then incubated for 20 hrs onto MH agar plate; format: functional
Staphylococcus aureus [10] = assay: Antibacterial against methicillin-resistant Staphylococcus aureus ATCC 43300 assessed as post antibiotic effect time at 2 times MIC incubated for 2 hrs followed by compound washout and then incubated for 20 hrs onto MH agar plate; format: functional
Staphylococcus aureus [11] = assay: Antibacterial against methicillin-resistant Staphylococcus aureus ATCC 43300 assessed as post antibiotic effect time at 4 times MIC incubated for 2 hrs followed by compound washout and then incubated for 20 hrs onto MH agar plate; format: functional
[12] = Cmax in ICR mouse at 10 mg/kg, iv by LC-MS/MS analysis; format: ADME, organism-based; parameters: dose 10 mg/kg, route intravenous; conditions: in vivo
[13] = Tmax in ICR mouse at 10 mg/kg, iv by LC-MS/MS analysis; format: ADME, organism-based; conditions: in vivo
[14] = Half life in ICR mouse at 10 mg/kg, iv by LC-MS/MS analysis; format: ADME, organism-based; conditions: in vivo
[15] = Clearance in ICR mouse at 10 mg/kg, iv by LC-MS/MS analysis; format: ADME, organism-based; conditions: in vivo
[16] = MRT in ICR mouse at 10 mg/kg, iv by LC-MS/MS analysis; format: ADME, organism-based; conditions: in vivo
[17] = AUC (0 to t) in ICR mouse at 10 mg/kg, iv by LC-MS/MS analysis; format: ADME, organism-based; conditions: in vivo
[18] = AUC (0 to infinity) in ICR mouse at 10 mg/kg, iv by LC-MS/MS analysis; format: ADME, organism-based; parameters: dose 10 mg/kg, route intravenous, time infinity; conditions: in vivo
Staphylococcus aureus [19] = assay: Antibacterial activity against methicillin-resistant Staphylococcus aureus infected in neutropenic thigh infection ICR/Swiss mouse model assessed reduction in colony forming unit in thigh at 20 mg/kg, iv administered 2 hrs post infection and measured at 24 hrs after drug dosage; format: functional
Staphylococcus aureus [20] = assay: Antibacterial activity against methicillin-resistant Staphylococcus aureus infected in systemic infection ICR mouse model assessed as animal survival rate at 30 mg/kg, iv relative to control; format: functional
Staphylococcus aureus [21] = assay: Bactericidal activity against methicillin-resistant Staphylococcus aureus ATCC 43300 assessed as reduction in colony forming unit at 4 times MIC incubated for 24 hrs followed by compound dilution with saline and then incubated for 20 hrs on MH agar plate by time-kill kinetics assay; format: functional
Staphylococcus aureus [22] = assay: as §1, with “assay relative to control” for “assay”; format: functional; parameters: scale not given: the % may be the effect or the level left

SMILES	MIC (Staphylococcus aureus [1]) [µg/mL]	MIC (Staphylococcus aureus [2]) [µg/mL]	MIC (Staphylococcus aureus [3]) [µg/mL]	MIC (Escherichia coli [4]) [µg/mL]	MIC (Escherichia coli [5]) [µg/mL]	other results
C=C[C@]1(C)C[C@@H](OC(=O)CSc2ccccc2NC(=O)CN2CCN(c3cccc(Cl)c3)CC2)[C@]2(C)[C@H](C)CC[C@]3(CCC(=O)[C@H]32)[C@@H](C)[C@@H]1O	1 (≈ 1.38 µM)	1 (≈ 1.38 µM)	2 (≈ 2.77 µM)	> 32	> 32	–
C=C[C@]1(C)C[C@@H](OC(=O)CSc2ccccc2NC(=O)CN2CCC(O)C2)[C@]2(C)[C@H](C)CC[C@]3(CCC(=O)[C@H]32)[C@@H](C)[C@@H]1O (some centres not stated)	0.25 (≈ 0.408 µM)	0.125 (≈ 0.204 µM)	0.25 (≈ 0.408 µM)	> 32	> 32	–
C=C[C@]1(C)C[C@@H](OC(=O)CSc2ccccc2NC(=O)CN2CCN(c3cccc(C)c3)CC2)[C@]2(C)[C@H](C)CC[C@]3(CCC(=O)[C@H]32)[C@@H](C)[C@@H]1O	> 8	> 8	> 8	> 32	> 32	–
C=C[C@]1(C)C[C@@H](OC(=O)CSc2ccccc2NC(=O)CN2CCOCC2)[C@]2(C)[C@H](C)CC[C@]3(CCC(=O)[C@H]32)[C@@H](C)[C@@H]1O	0.06 (≈ 0.0979 µM)	0.06 (≈ 0.0979 µM)	0.125 (≈ 0.204 µM)	> 32	> 32	Activity (Staphylococcus aureus [6]): 2.19 log10CFU/ml; Activity (Staphylococcus aureus [7]): 100%; Time (Staphylococcus aureus [8]): 1.62 h; Time (Staphylococcus aureus [9]): 2.05 h; Time (Staphylococcus aureus [10]): 2.64 h; Time (Staphylococcus aureus [11]): 3.47 h; Cmax [12]: 1760 ng/mL; Tmax [13]: 4.98 min; half-life [14]: 413 min; clearance [15]: 361 mL/min/kg; MRT [16]: 36.6 min; AUC(0-t) [17]: 470 ng·h/mL; AUC(0-inf) [18]: 480 ng·h/mL; Activity (Staphylococcus aureus [19]): 1.4 log10CFU/ml; Activity (Staphylococcus aureus [20]): 60%
C=C[C@]1(C)C[C@@H](OC(=O)CSc2ccccc2NC(=O)CN2CCN(c3ccc([N+](=O)[O-])cc3)CC2)[C@]2(C)[C@H](C)CC[C@]3(CCC(=O)[C@H]32)[C@@H](C)[C@@H]1O	4 (≈ 5.46 µM)	2 (≈ 2.73 µM)	2 (≈ 2.73 µM)	> 32	> 32	–
C=C[C@]1(C)C[C@@H](OC(=O)CSc2ccccc2NC(=O)CN2CCN(c3ccccc3F)CC2)[C@]2(C)[C@H](C)CC[C@]3(CCC(=O)[C@H]32)[C@@H](C)[C@@H]1O	8 (≈ 11.3 µM)	2 (≈ 2.83 µM)	1 (≈ 1.42 µM)	> 32	> 32	–
C=C[C@]1(C)C[C@@H](OC(=O)CSc2ccccc2NC(=O)CN2CCN(c3cccc([N+](=O)[O-])c3)CC2)[C@]2(C)[C@H](C)CC[C@]3(CCC(=O)[C@H]32)[C@@H](C)[C@@H]1O	4 (≈ 5.46 µM)	4 (≈ 5.46 µM)	4 (≈ 5.46 µM)	> 32	> 32	–
C=C[C@]1(C)C[C@@H](OC(=O)CSc2ccccc2NC(=O)CN2CCN(c3ccccc3O)CC2)[C@]2(C)[C@H](C)CC[C@]3(CCC(=O)[C@H]32)[C@@H](C)[C@@H]1O	2 (≈ 2.84 µM)	1 (≈ 1.42 µM)	0.5 (≈ 0.71 µM)	> 32	> 32	–
C=C[C@]1(C)C[C@@H](OC(=O)CSc2ccccc2NC(=O)CN2CCN(c3ccccc3[N+](=O)[O-])CC2)[C@]2(C)[C@H](C)CC[C@]3(CCC(=O)[C@H]32)[C@@H](C)[C@@H]1O	> 8	4 (≈ 5.46 µM)	> 8	> 32	> 32	–
C=C[C@]1(C)C[C@@H](OC(=O)CSc2ccccc2NC(=O)CN2CCCC2)[C@]2(C)[C@H](C)CC[C@]3(CCC(=O)[C@H]32)[C@@H](C)[C@@H]1O	0.125 (≈ 0.209 µM)	0.25 (≈ 0.419 µM)	0.125 (≈ 0.209 µM)	> 32	> 32	–
C=C[C@]1(C)C[C@@H](OC(=O)CSc2ccccc2NC(=O)CN2CCN(c3ccc(OC)cc3)CC2)[C@]2(C)[C@H](C)CC[C@]3(CCC(=O)[C@H]32)[C@@H](C)[C@@H]1O	4 (≈ 5.57 µM)	2 (≈ 2.79 µM)	0.5 (≈ 0.696 µM)	> 32	> 32	–
C=C[C@]1(C)C[C@@H](OC(=O)CSCCN(CC)CC)[C@]2(C)[C@H](C)CC[C@]3(CCC(=O)[C@H]32)[C@@H](C)[C@@H]1O [TIAMULIN]	1 (≈ 2.03 µM)	0.5 (≈ 1.01 µM)	0.5 (≈ 1.01 µM)	–	–	Activity (Staphylococcus aureus [6]): 1.54 log10CFU/ml; Activity (Staphylococcus aureus [21]): 1.9 log10CFU/ml; Activity (Staphylococcus aureus [22]): 97%; Time (Staphylococcus aureus [8]): 1.53 h; Time (Staphylococcus aureus [9]): 1.9 h; Time (Staphylococcus aureus [10]): 1.65 h; Time (Staphylococcus aureus [11]): 2.04 h; Activity (Staphylococcus aureus [19]): 0.59 log10CFU/ml; Activity (Staphylococcus aureus [20]): 20%
